From patent US20250049027A1, “PLANT PATHOGEN COMPOSITION” (Robjulz Pty. Ltd., priority 2021, published 2025)

Key:
[1] = test system: Fusarium oxysporum f. sp. cubense TR4 (FocTR4); assay: In vivo preventative testing using banana plants, soil application before inoculation; settings: concluded from the banana plant data; ppm of BAC
Description: The efficacy of a fungicidal composition of the present invention was tested against Fusarium oxysporum f. sp. cubense TR4 (FocTR4), the fungal pathogen responsible for Panama wilt of banana, for use as a preventative.
Banana seedlings (cv. Berangan, 2-month-old) were obtained from Malaysian Agricultural Research and Development Institute (MARDI). Soil was prepared in polybags and sterilized using a large capacity autoclave at the Institute of Plantation Sciences (IKP). Seedlings were allowed to acclimatize in a greenhouse for approximately two months, reaching a height of about 50 cm, before being inoculated with FocTR4. Plants were watered with a dripping system, and fertilized with NPK.
The seedlings were used in a randomized complete block design (RCBD) with seven treatments: healthy control, disease control, four concentrations (100 ppm, 300 ppm, 500 ppm and 700 ppm), and a commercial fungicide. For the four concentrations tested, compositions were either a test solution as described in Example 2, or a polymer control (as described in Example 1 with acrylamide polymer omitted). […]
Four replications were used for each treatment, with four plants per replicate. […] Seedlings were assessed after inoculation to measure disease incidence (DI) and disease severity (DSI). […] DSI was measured by estimating the proportion of plant surface area was infected. […]

[2] = test system: P. palmivora; assay: In vivo testing using cocoa pods, pre-treated then inoculated; set-up: species or system Phytophthora palmivora
Description: The efficacy of a fungicidal composition of the present invention was tested against P. palmivora. Healthy, green cocoa pods were picked, prior to artificial inoculation with Phytophthora isolate M5. One highly virulent P. palmivora isolate (MI 5 from Sabah) with 5 replicates (pods) were used as the control.
Each pod was washed carefully three times with sterile distilled water, the surface was disinfected for 2 minutes in 75% ethanol, and pods were air-dried at room temperature (25±2° C.). Different concentrations of the composition of the present invention (0-540 ppm) were prepared as for Examples 3 and 4, using the composition described in Example 1 which contained a polymeric film-forming agent, and spread on the pod surface to cover the whole pod. Cocoa pods with sterile distilled water were included as a negative control. After spreading, the pre-treated pods were inoculated with a 12 mm plug of 5-day old culture of P. palmivora grown on CMA plates by placing over the intact skin at the centre of each cocoa pod (see FIGS. 3A-I). The resulting pods were kept in moist plastic trays, covered with black polythene sheets to maintain moisture level, and incubated at 25±2° C. in the dark for seven days.

[3] = test system: Fusarium oxysporum f. sp. cubense TR4 (FocTR4); assay: In vitro poison agar test, mycelial growth on potato dextrose agar; type: cell-based; settings: concluded from the in vitro data; ppm of BAC
Description: In vitro tests were performed against Fusarium oxysporum f. sp. cubense TR4 (FocTR4), the fungal pathogen responsible for Panama wilt of banana, using a poison agar method as discussed below.
(§1) Potato dextrose agar (PDA, 39 g) medium (Difco™) was added to distilled or deionized water (1 L) in accordance with the manufacturer's instruction before autoclaving at 121° C. for 20 minutes and cooling to 50-55° C. in a water bath. To the resulting mixture was added the stock solution of Example 3, in accordance with the amounts in Table 5, or sterile distilled water (control sample). Five replications for each treatment were prepared, and the experiment was carried out using a completely randomized design (CRD).
Mycelial growth in each treatment was recorded within seven days after incubation at room temperature with natural dark/light cycle in reference to the growth of the control. Percent inhibition of diameter growth (% PIDG) was calculated as described above. Analyses of statistical data were carried out using the standard analysis of variance (ANOVA) procedure using SAS software (version 9.2).

[4] = test system: P. palmivora; assay: In vivo testing using durian fruit, pre-treated then inoculated; set-up: species or system Phytophthora palmivora; settings: concluded from the durian fruit data; ppm of BAC
Description: Healthy durian fruits were harvested carefully from a durian plantation, for artificial inoculation with Phytophthora isolate DB4. Untreated durian fruits with five replicates were used as the control. Fungicidal compositions were prepared, as for Example 5, then applied to the fruit surface. Durian fruits with sterile distilled water were included as a negative control. The pre-treated fruits were inoculated with a 12 mm plug of a 5-day old culture of P. palmivora grown on CMA plates by placing over the intact skin at the centre of each fruit. The resulting durian fruits were kept in moist plastic trays, covered with black polythene sheets to maintain moisture level, and incubated at 25±2° C. in the dark for seven days. Measurement of lesions were made at seven days after inoculation.

[5] = test system: Phytophthora palmivora; assay: In vitro poison agar test, mycelial growth on corn meal agar; type: cell-based; settings: concluded from the in vitro data; ppm of BAC
Description: In vitro tests were performed against Phytophthora palmivora, the pathogen responsible for pod rot of cocoa, stem canker of durian and rubber, and foot rot of pepper, using a poison agar method as discussed below.
A stock solution was prepared with (a) BAC (50% w/v in water, 180 mL), (b) STPP (25 g), and (c) BL8 (120 mL), with enough water to provide a total volume of 1 L.
as §1, with “Corn meal” for “Potato dextrose”, “(CMA, 17” for “(PDA, 39”, “(Oxoid™, Thermo Scientific)” for “(Difco™)”, “described above,” for “of Example 3,”, “3,” for “5,”
Mycelial growth in each treatment was recorded within seven days after incubation at room temperature with natural dark/light cycle in reference to the growth of the control. Percent inhibition of diameter growth (% PIDG) was calculated as follows:
[formula] • where: dc=average diameter of fungal colony in the control plate, and • dt=average diameter of fungal colony in the treatment plate. […]

Question: Which “effective concentration for controlling a fungus such as Fusarium, when applied to the soil” value [1] does the source give for benzalkonium chloride [BAC] here?
Answer: 500-2000 ppm

Question: What about the “pods showing fungal infection around plug” value ([2]; cocoa pods treated with 18 ppm BAC, FIG. 3B) of the same substance?
Answer: four out of five pods show fungal infection around plug

Question: What about the “pods showing fungal infection around plug” value ([2]; cocoa pods treated with 36 ppm BAC, FIG. 3C) of the same substance?
Answer: four out of five pods show fungal infection around plug

Question: And the “pods showing fungal infection around plug” value ([2]; cocoa pods treated with 54 ppm BAC, FIG. 3D)?
Answer: three out of five pods show fungal infection around plug

Question: And the “pods showing fungal infection around plug” value ([2]; cocoa pods treated with 72 ppm BAC, FIG. 3E)?
Answer: two out of five pods show fungal infection around plug

Question: And the “pods showing fungal infection around plug” value ([2]; cocoa pods treated with 90, 180, 360 and 540 ppm BAC, FIG. 3F-I)?
Answer: no fungal infection around plug

Question: And the “effective concentration for controlling an oomycete such as P. palmivora when applied to the fruit” value ([2]; concluded from the cocoa pod data, ppm of BAC)?
Answer: 15-750 ppm

Question: And the “effective concentration for controlling a fungus such as Fusarium” value [3]?
Answer: 500-2000 ppm

Question: And the “effective concentration for controlling an oomycete such as P. palmivora when applied to the fruit” value [4]?
Answer: 15-750 ppm

Question: What about the “effective concentration for controlling an oomycete such as Phytophthora” value [5] of the same substance?
Answer: 15-750 ppm
